Here are results for 9 compounds from patent publication US10988502B2, “Alpha-D-galactoside inhibitors of galectins” (GALECTO BIOTECH AB, priority 2016, dated 2021).

Read-outs that look alike come from different tables or passages of the source.

For data set [1], the target named is T1, Galectin-1 (Homo sapiens (Human), UniProt P09382). Particulars: read-out: affinity to Galectin-1, cited from earlier work.
Target sequence in this assay (P09382 whole entry, species assumed): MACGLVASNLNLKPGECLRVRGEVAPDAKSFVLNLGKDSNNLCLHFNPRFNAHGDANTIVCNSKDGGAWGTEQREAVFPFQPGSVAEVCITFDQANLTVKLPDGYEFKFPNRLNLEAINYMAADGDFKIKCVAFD
Data set [2] concerns the target Galectin-3 (Homo sapiens (Human), UniProt P17931). Nature of the data set: Fluorescence anisotropy assay, compound as inhibitor of galectin / fluorescein tagged saccharide probe interaction. In kind it is binding. The procedure:
(§1) The affinity of Example 1-32 for galectins were determined by a fluorescence anisotropy assay where the compound was used as an inhibitor of the interaction between galectin and a fluorescein tagged saccharide probe as described Sörme, P., Kahl-Knutsson, B., Huflejt, M., Nilsson, U. J., and Leffler H. (2004) Fluorescence polarization as an analytical tool to evaluate galectin-ligand interactions. Anal. Biochem. 334: 36-47, (Sörme et al., 2004) and Monovalent interactions of Galectin-1 By Salomonsson, Emma; Larumbe, Amaia; Tejler, Johan; Tullberg, Erik; Rydberg, Hanna; Sundin, Anders; Khabut, Areej; Frejd, Torbjorn; Lobsanov, Yuri D.; Rini, James M.; et al, From Biochemistry (2010), 49(44), 9518-9532, (Salonmonsson et al., 2010).
In general terms: Fluorescence polarisation rises when a labelled molecule tumbles more slowly, as on binding a larger partner.

Data set [3] concerns the target T1, Galectin-1. Described as above. It is filed as binding. The protocol:
as §1
Target sequence in this assay (P09382 whole entry): as the sequence (P09382 whole entry, species assumed) above

The nature of data set [4]: Permeability (Papp) Caco-2 A>B. It is filed as in vitro ADME. Particulars: human, apical (A) to basolateral (B) direction. The protocol: (§2) The permeability (Papp) (Caco-2 A>B) was determined from the apical (A) to the basolateral (B) direction in adenocarcinoma cells from human colon. The human hepatic stability (CLint) was determined in human hepatocytes.
For orientation: Caco-2 monolayers are a common model of the intestinal barrier.

Data set [5] in a line: Human hepatic stability (CLint) in human hepatocytes. It is filed as in vitro ADME. The settings on record: * = no degradation observed under the assay conditions. The procedure:
as §2

Data set [6] concerns galectins. Particulars: cited from earlier work.

Sequence of Galectin-3 (P17931 whole entry): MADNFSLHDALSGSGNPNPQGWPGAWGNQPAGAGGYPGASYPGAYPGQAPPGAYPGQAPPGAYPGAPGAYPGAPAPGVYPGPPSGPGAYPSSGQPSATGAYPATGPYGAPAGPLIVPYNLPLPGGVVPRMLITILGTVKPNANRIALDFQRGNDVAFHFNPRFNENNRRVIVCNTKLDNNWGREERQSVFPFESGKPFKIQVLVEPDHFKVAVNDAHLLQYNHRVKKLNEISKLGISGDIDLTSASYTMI

Consider `OCC1O[C@@H](S[C@@H]2O[C@H](CO)C(O)C(n3cc(-c4ccsc4)nn3)[C@H]2O)C(O)[C@@H](n2cc(-c3ccsc3)nn2)[C@H]1O` (stereo partly drawn), for which the Kd in data set [1] (T. Delaine, 2016, ChemBioChem) is below 0.01 µM.
The term Papp denotes the rate of passage across a membrane or cell layer, normalised by area and donor concentration. The CLint scaled is the capacity of the preparation to metabolise the compound, expressed as a volume cleared per time. Low readings indicate greater metabolic stability, high ones faster metabolism. Take `OC[C@H]1O[C@H](Sc2ccc(Cl)c(Cl)c2)[C@H](O)[C@@H](n2cc(-c3ccsc3)nn2)[C@H]1O` [Example 1, 3,4-Dichlorophenyl 3-deoxy-3-[4-(3-thiophenyl)-1H-1,2,3-triazol-1-yl]-1-thio-α-D-galactopyranoside]: the Kd in data set [2] came out at 2.6 µM; in data set [3], 0.14 µM. In data set [4], the Papp worked out at 10.1 ×10⁻⁶ cm/s. Moreover, the CLint scaled in data set [5] turned out to be 12.1 mL/min/kg.
The corresponding values for `OC[C@H]1O[C@H](Sc2cnc(C(F)(F)F)c(Br)c2)[C@H](O)[C@@H](n2cc(-c3ccsc3)nn2)[C@H]1O` [Example 4, 5-Bromo-6-trifluoromethyl-pyridin-3-yl 3-deoxy-3-[4-(3-thiophenyl)-1H-1,2,3-triazol-1-yl]-1-thio-α-D-galactopyranoside] are 1.2 µM, 0.38 µM, 2.5 ×10⁻⁶ cm/s and 11.3 mL/min/kg.
`OCC1O[C@H](Sc2cc(Cl)c(F)c(Cl)c2)C(O)[C@@H](n2cc(-c3nccs3)nn2)[C@H]1O` (stereo partly drawn) [Example 5] yielded a Papp in data set [4] of 10.5 ×10⁻⁶ cm/s. This compound also displayed a CLint scaled in data set [5] of 0.38 mL/min/kg.
With `OC[C@H]1O[C@H](Sc2cc(Cl)c(F)c(Cl)c2)[C@H](O)[C@@H](n2cc(-c3cscn3)nn2)[C@H]1O` [Example 14, 3,5-Dichloro-4-fluoro-phenyl 3-deoxy-3-[4-(4-thiazolyl)-1H-1,2,3-triazol-1-yl]-1-thio-α-D-galactopyranoside], the Kd in data set [2] stood at 6.2 µM; in data set [3], 0.23 µM. The Papp in data set [4] was 8.8 ×10⁻⁶ cm/s.
As to `OC[C@H]1O[C@H](Sc2ccc(Cl)c(Cl)c2)[C@H](O)[C@@H](n2cc(-c3nc(Cl)cs3)nn2)[C@H]1O` [Example 31, 3,4-Dichlorophenyl 3-deoxy-3-[4-(4-chloro-thiazol-2-yl)-1H-1,2,3-triazol-1-yl]-1-thio-α-D-galactopyranoside], the figures for the Kd in data set [2] and in data set [3] were 0.46 µM and 0.12 µM, respectively.
In the case of `OC[C@H]1O[C@H](Sc2ccc(Cl)c(Cl)c2)[C@H](O)[C@@H](n2cc(-c3nc(C(F)(F)F)cs3)nn2)[C@H]1O` [Example 32, 3,4-Dichlorophenyl 3-deoxy-3-[4-(4-trifluoromethyl-thiazol-2-yl)-1H-1,2,3-triazol-1-yl]-1-thio-α-D-galactopyranoside], the Kd in data set [2] was 0.21 µM; in data set [3], 0.79 µM.
On to `O=C[C@H](O)[C@@H](O)[C@@H](O)[C@H](O)CO` [Galactose, D-galactose], for which the “affinity relative to lactose” value in data set [6] (compared with lactose) is reported as 50-100 times lower. The Kd in data set [1] (Tejler et. al. 2009) was 10000 µM.
As to `OC[C@H]1O[C@@H](O[C@H]2[C@H](O)[C@@H](O)C(O)O[C@@H]2CO)[C@H](O)[C@@H](O)[C@H]1O` (stereo partly drawn) [Lactose], the Kd in data set [6] (reviewed by Leffler, 2001, Leffler et al., 2004, read-out: Kd for all galectins) is 100 to 1000 µM.
